From US7345065B2, “Methods and compositions for alleviating pain” (Allergan, Inc., priority 2002, dated 2008)

Tests used:
mice = test: Sedative effects in mice (exploratory activity, digicom analyzer chamber); assay type: in vivo, mouse; settings: intraperitoneal, wild type mice; clonidine 500 ug/kg, Compound 3 100 ug/kg
Experimental: (§1) Sedative effects were analyzed by assessing exploratory behavior in a darkened chamber as follows. Mice were weighed, and test compound administered by intrathecal injection in a volume of 5 μl or by intraperitoneal injection in 1 ml/kg volume at the indicated dose. At predetermined time points corresponding with analgesia measurements 5 to 30 minutes following the injection, the animal's activity was determined automatically by placing the mouse in a digicom analyzer chamber (Omnitech Electronic; Columbus, Ohio). The digicom analyzer chamber contains photocell beams criss-crossing the box that are broken as the animal moves around; the chamber was modified for mice by raising the level of the floor. Computer analysis of total animal movement proceeded over a 5-minute time period. Any given animal was used at most twice for this protocol, as learned behavior can affect the data. All animals received at least two weeks rest between studies.

[1] = system: α-2B heterozygous (−/+) and homozygous (−/−) knockout mice; test: Sulprostone sensitized pain (allodynia), α-2B knockout mice; assay type: in vivo, mouse; settings: intraperitoneal; heterozygous and homozygous α-2B knockout; clonidine 500 ug/kg, Compound 3 100 ug/kg
[2] = system: sulprostone-sensitized wild type mice; test: Sulprostone sensitized pain (allodynia), wild type mice; assay type: in vivo, mouse; settings: intraperitoneal, wild type mice; clonidine 500 ug/kg, Compound 3 100 ug/kg
Experimental: Non-specific α-adrenergic agonists were assayed in α-2A receptor deficient (“knockout”) mice (Hein et al., supra, 1999) using a mouse model of sulprostone sensitized pain in which allodynia is evoked by intrathecal administration of a selective prostaglandin E2 receptor agonist to conscious mice essentially as described in Minami et al., Pain 57:217-223 (1994). In this model, the pain response to stroking the flank with a paint brush is scored eight times over a 35 minute period starting 15 minutes following spinal administration of sulprostone and intrathecal or intraperitoneal administration of drug or control vehicle. Sulprostone elicits a “pain” score of 12-13 on a 16-point scale.
Assays for allodynia in wild type and α-2A knockout mice were performed essentially according to the method of Yaksh and Harty, J. Pharmacology Exp. Ther. 244: 501-507 (1998). In brief, mice were divided into groups of 5-6 animals. Control mice were administered 5 ul DMSO while treated animals were injected with 5 ul DMSO containing various doses of the indicated agent. After intrathecal injection, each mouse was placed in an individual 13×8.5×13 cm Plexiglass enclosure with wood chips on the floor for observation. Allodynia was assessed once every five minutes over a 50 minute time period, with response recorded eight times in the 15 to 50 minute time frame. Allodynia was assessed by light stroking of the flank of the mice with a small paintbrush and ranked as follows: 0, no response; 1, mild squeaking with attempts to move away from the stroking probe; and 2, vigorous squeaking evoked by the stroking probe, biting at the probe and strong efforts to escape. The eight scores for each animal were added together, and the mean for the group determined to give an average total score.

Male Sprague-Dawley rats = test: Sedative effects in rats (total activity, digicom analyzer chamber); assay type: in vivo, rat; settings: single intraperitoneal dose 1 to 1000 μg/kg
Experimental: as §1
Male Sprague-Dawley rats that were not subject to surgery were used for assessment of sedative effects. Rats were weighed and compound administered by intravenous or intraperitoneal injection or given orally at the indicated dose. At a predetermined time point 5 to 30 minutes following injection, the animal's activity was determined automatically by placing the rat in a digicom analyzer chamber (Omnitech Electronic). Total activity was analyzed as described above.

O=C1c2ccccc2CCC1Cc1c[nH]c(=S)[nH]1 (racemic) [Compound 3]
concomitant sedation (mice): without concomitant sedation | analgesic effect in α-2B knockout mice [1]: not analgesic | sulprostone-induced tactile allodynia [2]: alleviated sulprostone-induced tactile allodynia | non-sedating dose relative to doses producing a robust reversal of allodynia (Male Sprague-Dawley rats): > 100 fold
